Results reported in PubChem BioAssay (NCI).
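Tested at 5 concentrations; 48 h exposure; 96-well plates; endpoints linearly interpolated, else capped at highest concentration. GI50 is the concentration that inhibits growth by half. The concentration for full growth arrest is given as TGI.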

Legend:
Test in all cases: DTP human tumour cell line panel, 48 h
[1] = system: SF-268 CNS
[2] = system: OVCAR-8 ovarian
[3] = system: NCI-H460 lung
[4] = system: MOLT-4 leukemia
[5] = system: NCI/ADR-RES ovarian
[6] = system: HCT-116 colon
[7] = system: SF-539 CNS
[8] = system: SK-OV-3 ovarian
[9] = system: RPMI-8226 leukemia
[10] = system: SK-MEL-5 melanoma
[11] = system: NCI-H23 lung
[12] = system: ACHN renal
[13] = system: EKVX NSCLC
[14] = system: MCF7 breast
[15] = system: TK-10 renal
[16] = system: KM12 colon
[17] = system: OVCAR-4 ovarian
[18] = system: M14 melanoma
[19] = system: BT-549 breast
[20] = system: T-47D breast
[21] = system: SNB-19 CNS
[22] = system: HL-60(TB) leukemia
[23] = system: CAKI-1 renal
[24] = system: UACC-257 melanoma
[25] = system: MDA-MB-435
[26] = system: 786-0 renal
[27] = system: UO-31 renal
[28] = system: IGROV1 ovarian
[29] = system: HOP-92 NSCLC
[30] = system: CCRF-CEM leukemia
[31] = system: SK-MEL-28 melanoma
[32] = system: SF-295 CNS
[33] = system: COLO 205 colon
[34] = system: SW-620 colon
[35] = system: HCC-2998 colon
[36] = system: PC-3 prostate
[37] = system: HOP-62 NSCLC
[38] = system: DU-145 prostate
[39] = system: U251 CNS
[40] = system: SR leukemia
[41] = system: HS 578T breast
[42] = system: LOX IMVI melanoma
[43] = system: RXF 393 renal
[44] = system: HCT-15 colon
[45] = system: HT29 colon
[46] = system: SNB-75 CNS
[47] = system: UACC-62 melanoma
[48] = system: SK-MEL-2 melanoma
[49] = system: NCI-H226 lung
[50] = system: A498 renal
[51] = system: MDA-MB-231 breast
[52] = system: OVCAR-5 ovarian
[53] = system: A549 NSCLC
[54] = system: K-562 leukemia
[55] = system: SN12C renal
[56] = system: OVCAR-3 ovarian
[57] = system: NCI-H522 lung

CC(=O)Nc1ccc(-c2nc3ccccc3s2)cc1C
TGI [1]: > 100000 nM
TGI [2]: > 100000 nM
TGI [3]: > 100000 nM
TGI [4]: > 100000 nM
TGI [5]: > 100000 nM
TGI [6]: > 100000 nM
TGI [7]: > 100000 nM
TGI [8]: > 100000 nM
TGI [9]: > 100000 nM
TGI [10]: > 100000 nM
TGI [11]: > 100000 nM
TGI [12]: > 100000 nM
TGI [13]: > 100000 nM
TGI [14]: > 100000 nM
TGI [15]: > 100000 nM
TGI [16]: > 100000 nM
TGI [17]: > 100000 nM
TGI [18]: > 100000 nM
TGI [19]: > 100000 nM
TGI [20]: > 100000 nM
TGI [21]: > 100000 nM
TGI [22]: > 100000 nM
TGI [23]: 59000 nM
TGI [24]: > 100000 nM
TGI [25]: > 100000 nM
TGI [26]: > 100000 nM
TGI [27]: > 100000 nM
TGI [28]: > 100000 nM
TGI [29]: > 100000 nM
TGI [30]: > 100000 nM
TGI [31]: > 100000 nM
TGI [32]: > 100000 nM
TGI [33]: > 100000 nM
TGI [34]: > 100000 nM
TGI [35]: > 100000 nM
TGI [36]: > 100000 nM
TGI [37]: > 100000 nM
TGI [38]: 55600 nM
TGI [39]: > 100000 nM
TGI [40]: > 100000 nM
TGI [41]: > 100000 nM
TGI [42]: > 100000 nM
TGI [43]: > 100000 nM
TGI [44]: > 100000 nM
TGI [45]: > 100000 nM
TGI [46]: > 100000 nM
TGI [47]: > 100000 nM
TGI [48]: > 100000 nM
TGI [49]: > 100000 nM
TGI [50]: 21600 nM
TGI [51]: > 100000 nM

COC(=O)c1c2c(cc3c1CC1(C3)Cc3cc4c(c(C(C)=O)c3C1)CCC4)C=CC2 (stereo not given)
TGI [1]: > 31600 nM
TGI [2]: > 31600 nM
TGI [3]: > 31600 nM
TGI [4]: > 31600 nM
TGI [5]: > 31600 nM
TGI [6]: > 31600 nM
TGI [7]: > 31600 nM
TGI [9]: > 31600 nM
TGI [10]: > 31600 nM
TGI [11]: > 31600 nM
TGI [12]: > 31600 nM
TGI [13]: > 31600 nM
TGI [14]: > 31600 nM
TGI [15]: > 31600 nM
TGI [16]: > 31600 nM
TGI [17]: > 31600 nM
TGI [18]: > 31600 nM
TGI [52]: > 31600 nM
TGI [19]: > 31600 nM
TGI [53]: > 31600 nM
TGI [20]: > 31600 nM
TGI [21]: > 31600 nM
TGI [22]: > 31600 nM
TGI [23]: > 100000 nM
TGI [24]: > 31600 nM
TGI [25]: > 31600 nM
TGI [26]: > 31600 nM
TGI [54]: > 31600 nM
TGI [27]: > 31600 nM
TGI [28]: > 31600 nM
TGI [29]: > 31600 nM
TGI [30]: > 31600 nM
TGI [31]: > 31600 nM
TGI [32]: > 31600 nM
TGI [33]: > 31600 nM
TGI [55]: > 31600 nM
TGI [36]: > 31600 nM
TGI [37]: > 31600 nM
TGI [38]: > 31600 nM
TGI [56]: > 31600 nM
TGI [39]: > 31600 nM
TGI [57]: > 31600 nM
TGI [40]: > 31600 nM
TGI [41]: > 31600 nM
TGI [44]: > 31600 nM
TGI [45]: > 31600 nM
TGI [46]: 31200 nM
TGI [47]: > 31600 nM
TGI [48]: > 31600 nM
TGI [49]: > 31600 nM
TGI [50]: > 31600 nM
TGI [51]: > 31600 nM

NC1CCC(Nc2nc(NCc3cc(Cl)ccc3O)c3ncn(C4CCCC4)c3n2)CC1 (stereo not given)
GI50 [1]: 188 nM
TGI [1]: 520 nM
GI50 [3]: 125 nM
TGI [3]: 958 nM
GI50 [4]: 133 nM
TGI [4]: 492 nM
GI50 [5]: 156 nM
TGI [5]: 316 nM
GI50 [6]: 64.4 nM
TGI [6]: 660 nM
GI50 [7]: 166 nM
TGI [7]: 341 nM
GI50 [8]: 494 nM
TGI [8]: 1650 nM
GI50 [9]: 202 nM
TGI [9]: 474 nM
GI50 [10]: 175 nM
TGI [10]: 325 nM
GI50 [11]: 153 nM
TGI [11]: 478 nM
GI50 [12]: 183 nM
TGI [12]: 527 nM
GI50 [13]: 262 nM
TGI [13]: 928 nM
GI50 [14]: 104 nM
TGI [14]: 318 nM
GI50 [15]: 332 nM
TGI [15]: 979 nM
GI50 [16]: 132 nM
TGI [16]: 1020 nM
GI50 [17]: 183 nM
TGI [17]: 778 nM
GI50 [18]: 162 nM
TGI [18]: 330 nM
GI50 [52]: 242 nM
TGI [52]: 1160 nM
GI50 [19]: 262 nM
TGI [19]: 877 nM
GI50 [53]: 193 nM
TGI [53]: 713 nM
GI50 [20]: 259 nM
TGI [20]: 858 nM
GI50 [21]: 202 nM
TGI [21]: 1010 nM
GI50 [22]: 165 nM
TGI [22]: 388 nM
GI50 [23]: 295 nM
TGI [23]: 1570 nM
GI50 [24]: 180 nM
TGI [24]: 387 nM
GI50 [25]: 149 nM
TGI [25]: 328 nM
GI50 [26]: 211 nM
TGI [26]: 624 nM
GI50 [54]: 175 nM
TGI [54]: 461 nM
GI50 [27]: 227 nM
TGI [27]: 599 nM
GI50 [28]: 204 nM
TGI [28]: 771 nM
GI50 [29]: 163 nM
TGI [29]: 630 nM
GI50 [30]: 127 nM
TGI [30]: 532 nM
GI50 [31]: 153 nM
TGI [31]: 340 nM
GI50 [32]: 159 nM
TGI [32]: 542 nM
GI50 [33]: 96.5 nM
TGI [33]: 238 nM
GI50 [55]: 143 nM
TGI [55]: 759 nM
GI50 [34]: 150 nM
TGI [34]: 922 nM
GI50 [35]: 201 nM
TGI [35]: 603 nM
GI50 [36]: 160 nM
TGI [36]: 592 nM
GI50 [37]: 245 nM
TGI [37]: 813 nM
GI50 [38]: 207 nM
TGI [38]: 1020 nM
GI50 [56]: 133 nM
TGI [56]: 640 nM
GI50 [39]: 140 nM
TGI [39]: 444 nM
GI50 [57]: 152 nM
TGI [57]: 335 nM
GI50 [40]: 42.2 nM
TGI [40]: 237 nM
GI50 [41]: 222 nM
TGI [41]: 893 nM
GI50 [42]: 537 nM
TGI [42]: 5000 nM
GI50 [43]: 120 nM
TGI [43]: 277 nM
GI50 [44]: 259 nM
TGI [44]: 966 nM
GI50 [45]: 220 nM
TGI [45]: 755 nM
GI50 [46]: 114 nM
TGI [46]: 330 nM
GI50 [47]: 149 nM
TGI [47]: 335 nM
GI50 [48]: 188 nM
TGI [48]: 356 nM
GI50 [49]: 247 nM
TGI [49]: 2780 nM
GI50 [50]: 211 nM
TGI [50]: 484 nM
GI50 [51]: 186 nM
TGI [51]: 759 nM
